Consider 25 molecules from ChEMBL document CHEMBL1240489, “Discovery of N-{1-[3-(3-oxo-2,3-dihydrobenzo[1,4]oxazin-4-yl)propyl]piperidin-4-yl}-2-phenylacetamide (Lu AE51090): an allosteric muscarinic M1 receptor agonist with unprecedented selectivity and procognitive potential” (J Med Chem, 2010).

As usually defined, the Emax is the size of the effect at its maximum, as opposed to the concentration needed. By EC50 is commonly meant the midpoint of the concentration-response curve.

The structures appear in SMILES notation.

In one test the target is T1, Muscarinic acetylcholine receptor M1 (Homo sapiens) (UniProt P11229).
T1 sequence (whole entry): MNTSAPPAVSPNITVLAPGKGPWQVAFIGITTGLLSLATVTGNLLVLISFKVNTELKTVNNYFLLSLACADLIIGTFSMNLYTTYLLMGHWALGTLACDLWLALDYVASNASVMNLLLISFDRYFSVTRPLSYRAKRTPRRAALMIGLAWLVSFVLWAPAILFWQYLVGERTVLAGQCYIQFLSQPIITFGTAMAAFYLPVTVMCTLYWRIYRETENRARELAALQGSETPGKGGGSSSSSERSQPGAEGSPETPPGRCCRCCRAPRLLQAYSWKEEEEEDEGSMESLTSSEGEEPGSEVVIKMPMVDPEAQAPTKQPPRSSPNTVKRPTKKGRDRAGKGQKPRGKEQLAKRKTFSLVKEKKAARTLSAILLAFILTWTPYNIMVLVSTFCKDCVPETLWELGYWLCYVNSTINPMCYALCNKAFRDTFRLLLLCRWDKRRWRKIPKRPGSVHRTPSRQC
Nature of the test: Agonist activity at human muscarinic M1 receptor expressed in CHO-K1 cells assessed as increase of acetylcholine-induced calcium flux by FLIPR assay relative to acetylcholine. The format is functional, cell-based.
For `O=C(Cc1ccccc1)NC1CCN(CCCN2C(=O)CCc3c(F)cccc32)CC1`, the Emax was 77%.
In the case of `CCC(=O)NC1CCN(CCCN2C(=O)CCc3cc(F)c(F)cc32)CC1`, the Emax came out at 87%.
Same read-out and setting: in the case of `O=C(CCc1ccccc1)NC1CCN(CCCN2C(=O)COc3ccccc32)CC1` it was 60%; in that of `O=C(NC1CCN(CCCN2C(=O)COc3ccccc32)CC1)C1CC1`, 74%; in that of `O=C(NC1CCN(CCCN2C(=O)COc3ccccc32)CC1)C1CCC1`, 37%.
On the same count and under the same terms, in the case of `O=C(Cc1ccccc1)NC1CCN(CCCN2C(=O)CCc3ccccc32)CC1` it was 89%.
Turning to `O=C(Cc1ccccc1)NC1CCN(CCCN2C(=O)CCc3cccc(F)c32)CC1`, the Emax was found to be 75%.
Regarding `COc1ccc2c(c1)CCC(=O)N2CCCN1CCC(NC(=O)Cc2ccccc2)CC1`, the Emax is 84%.
Still for that read-out and setting: the figure for `O=C(NC1CCN(CCCN2C(=O)COc3ccccc32)CC1)C1CCCC1` is 41%; for `O=C(Cc1ccccc1)NC1CCN(CCCN2C(=O)CCc3cc(F)ccc32)CC1` it is 79%.
Same read-out and setting: in the case of `CC(C)C(=O)NC1CCN(CCCN2C(=O)COc3ccccc32)CC1` it was 72%; in that of `CCC(=O)NC1CCN(CCCN2C(=O)COc3ccccc32)CC1`, 78%.
As to `CC(=O)NC1CCN(CCCN2C(=O)CCc3cc(F)c(F)cc32)CC1`, the Emax came out at 76%.
The same measure, in the same setting: in the case of `O=C(Cc1ccccc1)NC1CCN(CCCN2C(=O)CCc3ccc(F)cc32)CC1` it was 86%.
On the same count and under the same terms, the figure for `O=C(Cc1ccccc1)NC1CCN(CCCN2C(=O)CSc3ccccc32)CC1` is 79%.
On the same count and under the same terms, the figure for `CCC(=O)NC1CCN(CCCN2C(=O)CCc3c(F)cccc32)CC1` is 90%; for `O=C(Cc1ccccc1)NC1CCN(CCCN2C(=O)CCc3cc(F)c(F)cc32)CC1` it is 89%.
With `CC(=O)NC1CCN(CCCN2C(=O)COc3ccccc32)CC1`, the Emax was 74%.
On the same count and under the same terms, the figure for `CN(C(=O)Cc1ccccc1)C1CCN(CCCN2C(=O)COc3ccccc32)CC1` is 67%; for `O=C(Cc1ccccc1)NC1CCN(CCCn2c(=O)oc3ccccc32)CC1` it is 70%.
Take `CCC(=O)NC1CCN(CCCN2C(=O)CCc3cccc(F)c32)CC1`: the Emax came to 78%.
Still for that read-out and setting: in the case of `CCC(=O)NC1CCN(CCCN2C(=O)CCc3cc(F)ccc32)CC1` it was 83%; in that of `CCC(=O)NC1CCN(CCCN2C(=O)CCc3ccc(F)cc32)CC1`, 83%; in that of `COc1ccc2c(c1)N(CCCN1CCC(NC(=O)Cc3ccccc3)CC1)C(=O)CC2`, 83%.
For the molecule `CCC(=O)NC1CCN(CCCN2C(=O)COc3cc(F)c(F)cc32)CC1`, the maximal response (Emax) came to 88%.

The target of a further test is T2, Muscarinic acetylcholine receptor M1 (Homo sapiens, UniProt P11229).
T2 sequence (P11229 whole entry): T1 sequence (whole entry)
For the molecule `O=C(Cc1ccccc1)NC1CCN(CCCN2C(=O)CCc3c(F)cccc32)CC1`, the 50% effective concentration (EC50) is 150 nM.
`CCC(=O)NC1CCN(CCCN2C(=O)CCc3cc(F)c(F)cc32)CC1` gave an EC50 of 20 nM.
Same read-out and setting: in the case of `O=C(CCc1ccccc1)NC1CCN(CCCN2C(=O)COc3ccccc32)CC1` it was 970 nM; in that of `O=C(NC1CCN(CCCN2C(=O)COc3ccccc32)CC1)C1CC1`, 110 nM; in that of `O=C(NC1CCN(CCCN2C(=O)COc3ccccc32)CC1)C1CCC1`, 160 nM.
In the case of `O=C(Cc1ccccc1)NC1CCN(CCCN2C(=O)CCc3ccccc32)CC1`, the concentration giving a half-maximal response (EC50) came to 48 nM.
Still for that read-out and setting: the figure for `O=C(Cc1ccccc1)NC1CCN(CCCN2C(=O)CCc3cccc(F)c32)CC1` is 290 nM; for `COc1ccc2c(c1)CCC(=O)N2CCCN1CCC(NC(=O)Cc2ccccc2)CC1` it is 560 nM.
With `O=C(NC1CCN(CCCN2C(=O)COc3ccccc32)CC1)C1CCCC1`, the EC50 was found to be 350 nM.
Consider `O=C(Cc1ccccc1)NC1CCN(CCCN2C(=O)CCc3cc(F)ccc32)CC1`, for which the EC50 worked out at 49 nM.
Consider `CC(C)C(=O)NC1CCN(CCCN2C(=O)COc3ccccc32)CC1`, for which a half-maximal effect (EC50) was put at 46 nM.
In turn, `CCC(=O)NC1CCN(CCCN2C(=O)COc3ccccc32)CC1` had an EC50 of 27 nM.
On the same count and under the same terms, the figure for `CC(=O)NC1CCN(CCCN2C(=O)CCc3cc(F)c(F)cc32)CC1` is 86 nM; for `O=C(Cc1ccccc1)NC1CCN(CCCN2C(=O)CCc3ccc(F)cc32)CC1` it is 51 nM; for `O=C(Cc1ccccc1)NC1CCN(CCCN2C(=O)CSc3ccccc32)CC1` it is 100 nM.
Consider `CCC(=O)NC1CCN(CCCN2C(=O)CCc3c(F)cccc32)CC1`, for which the midpoint of the response, the EC50, lay at 19 nM.
Same read-out and setting: the figure for `O=C(Cc1ccccc1)NC1CCN(CCCN2C(=O)CCc3cc(F)c(F)cc32)CC1` is 15 nM; for `CC(=O)NC1CCN(CCCN2C(=O)COc3ccccc32)CC1` it is 180 nM.
Molecule `CN(C(=O)Cc1ccccc1)C1CCN(CCCN2C(=O)COc3ccccc32)CC1` came in with an EC50 of 910 nM.
`O=C(Cc1ccccc1)NC1CCN(CCCn2c(=O)oc3ccccc32)CC1` gave an EC50 of 1100 nM.
Same read-out and setting: in the case of `CCC(=O)NC1CCN(CCCN2C(=O)CCc3cccc(F)c32)CC1` it was 310 nM.
The same measure, in the same setting: in the case of `CCC(=O)NC1CCN(CCCN2C(=O)CCc3cc(F)ccc32)CC1` it was 9 nM; in that of `CCC(=O)NC1CCN(CCCN2C(=O)CCc3ccc(F)cc32)CC1`, 20 nM.
On the same count and under the same terms, the figure for `COc1ccc2c(c1)N(CCCN1CCC(NC(=O)Cc3ccccc3)CC1)C(=O)CC2` is 120 nM; for `CCC(=O)NC1CCN(CCCN2C(=O)COc3cc(F)c(F)cc32)CC1` it is 10 nM.
